One series deals with K562-200 cells. Put plainly: Actin stress fiber staining, K562-200. Format: cell-based, human. The settings on record: K562-200, 72 h. The method, then: (§1) To assess the effects on actin stress fiber organization and cell morphology, rhodamine phalloidin was used. Cells were fixed in 4% paraformaldehyde 72 h post-treatment. Cells were permeabilized for 5 min in prechilled 0.5% Triton × 100, 3 mM MgCl2, and 300 mM sucrose, followed by washing with 1× DPBS. A blocking buffer composed of 5% fetal bovine serum (FBS), 0.1% Tween 20, and 0.02% sodium azide was then added to the cells for 30 min. Rhodamine phalloidin was incubated for one hour after removing and discarding the blocking buffer. Cells were subsequently washed with 1× PBS, and DAPI was added for nucleic acid staining prior to fluorescence imaging.

The subject of series [1] is embryonic lung HEL 299 cells. As to conditions: 10–50 mM for 48 h ref 56; cited from earlier work.
For series [2] the following is noted: patients with diabetes, observational study published in 2005 ref 13; cited from earlier work.
For series [3] the following is noted: T2DM / diabetic patients ref 57; cited from earlier work.
Series [4] deals with K562-200 (K562/Adr200) cells. Put plainly: CellTiter-Glo ATP cell viability/proliferation, K562-200. Format: cell-based, human. As to conditions: for IC50: K562-200, ATP release, 72 h. The method, then: (§2) SW1222 were cultured in DMEM (Gibco, New York, NY, USA) media supplemented with 10% fetal bovine serum (FBS) (Gibco, New York, NY, USA) and 1% penicillin/streptomycin (Gibco, USA). Both K562 and K562/Adr200 were cultured in RPMI media (Gibco, New York, NY, USA) supplemented with 10% FBS and 1% penicillin/streptomycin. The seeding density for all the three cell lines was 1000 cells per well in 96 wells plates. […] From this experiment, the effective concentration that inhibited the growth of ≥50% of the cells was determined. […] Both metformin and copper sulfate were prepared in sterile nuclease-free water, then added to the media. The cells were maintained in culture for 72 h before any further assessments were done. […] A control sample of untreated cells was included in all experiments. […] The CellTiter-Glo® luminescent cell viability assay was used to determine levels of ATP release from each cell line after 72 h, according to manufacturer’s instructions.
Background: ATP-based viability assays read luminescence as a measure of living cells.

For series [5], the system named is K562 cells. Briefly: CellTiter-Glo ATP cell viability/proliferation, K562. Format: cell-based, human. The settings on record: for IC50: Homo sapiens, K562, 72 h, K562, ATP release; for IC50 / Normalized ATP percentage: 72 h. The method, then: as §2
Details of series [6]: method as in PMID 21168988. As to conditions: NMR, literature data ref 39; cited from earlier work.
The subject of series [7] is human gastric cancer AGS cells. As to conditions: 20 mM for 12 h ref 56; cited from earlier work.
The conditions of series [8]: potentiometry, cited from earlier work.
Series [9] relates to normal colon CCD 841 CoN cells. The settings on record: 10–50 mM for 48 h ref 56; cited from earlier work.
Series [10] concerns SW1222 cells. Put plainly: Actin stress fiber staining and morphology, SW1222. The series is classed as cell-based, human. The settings on record: SW1222, 15 mM and 50 mM metformin, 72 h. The method, then: as §1
Another series concerns 293 cells. As to conditions: 10–50 mM for 48 h ref 56; cited from earlier work.
The test system of series [11] is SW1222 cells. Put plainly: CellTiter-Glo ATP cell viability/proliferation, SW1222. The series is classed as cell-based, human. The method, then:
as §2

For series [12] the following is noted: potentiometry, cited from earlier work. The source holds these as a separate data set.
Series [13] is described as follows: Cu(II)/metformin complex formation constants by combined potentiometric-Vis titration. The settings on record: 0.1 M KCl, 25.0 °C, [L] = 4 mM, [Cu^2+] = 2 mM, potentiometry/Vis. Format: physicochemical. As for the experimental part:
Protonation and complex-formation equilibrium studies were carried out under the same conditions described in previous publications. […]. Combined potentiometric–spectrophotometric measurements were performed for protonation equilibria in the 200–400 nm spectral range and in the 400–800 nm spectral range for copper (II) complexes, using 0.2 and 1 cm path lengths, respectively. Protonation and complex formation data were analyzed using the Hyperquad and HypSpec2014 program.

The subject of series [14] is K562 cells. Briefly: Actin stress fiber staining, K562. Format: cell-based, human. As to conditions: K562, 72 h. The method, then:
as §1

Like-named read-outs stand apart in the source and are kept apart here.

As a reminder, the IC50 is the concentration that inhibits the measured activity by half. A high value points to lower potency. `CN(C)C(=N)N=C(N)N` [metformin, 3-(diaminomethylidene)-1,1-dimethylguanidine]: the results for the “Lowest concentration showing loss of actin stress fibers” value with K562-200 cells and with K562 cells [14] were 20 µM and 1 mM, respectively. The Effect on viability entry (in series [1]; in [9]; in the series with 293 cells) was “no significant effect” in each case. In series [2], the “Decrease in cancer risk with metformin use” value is recorded as 23%. In addition, the Plasma concentration in series [3] is given as about 20 µM. In addition, the IC50 in series [4] (Homo sapiens, K562, 72 h) was 63.1 µM; in series [4] it was 63 µM; in the series on K562 cells [5], 851 µM; with K562 cells [5] (as in Figure 7B legend), about 1000 µM; with SW1222 cells [11] (Homo sapiens, SW1222, ATP release, 72 h) it was 15600 µM. Besides, the “Normalized ATP percentage” value in the series with K562 cells [5] (K562, 10 mM metformin) turned out to be 35.2%. The figures for the “Protonation constant LH” value in [6], in series [12] (literature data ref 37) and in [12] (literature data ref 38) were 13.8 [39], 11.02 [37] and 11.10 [38], respectively. The “Protonation constant LH2” value in series [6] is 3.1 [39]; in series [12] (literature data ref 37), 2.79 [37]; in series [12] (literature data ref 38), 2.90 [38]. In addition, the “Effect on cell viability” value in series [7] was “significantly reduced cell viability”. Also, the “LogK CuL” value in series [8] (literature data ref 38) was 8.59 [38]; in series [8] (literature data ref 42) it was 7.17 [42]. Also, the “LogK CuL2” value was 6.35 [38] in series [8] (literature data ref 38) and 5.13 [42] in series [8] (literature data ref 42). Further, in the series on SW1222 cells [10], the “Cell shrinkage and rounding” value is given as “dramatically increased”. Besides, the “Logβ CuL2” value in series [13] is on record as 22.20(7). Further, in series [13], the “Logβ CuL2H” value was 28.3(1). Besides, the “Logβ CuLH” value in series [13] is 17.87(5).
On to `O=S(=O)([O-])[O-].[Cu+2]` [Cu(II), copper (II) sulfate], for which the “Inhibition of cell proliferation (% of the cells)” value in [4] (K562-200, 400 µM Cu(II), absence of metformin) was at least 50%; in the series on K562 cells [5] (K562, 400 µM Cu(II), absence of metformin), at least 50%; with SW1222 cells [11] (SW1222, 400 µM Cu(II), absence of metformin), at least 50%. Besides, the Effect on cells entry is given as “almost all cells died” in series [4] (K562-200, 5 mM Cu(II), regardless of metformin concentration); “almost all cells died” in the series with K562 cells [5] (K562, 5 mM Cu(II), regardless of metformin concentration); “almost all cells died” with SW1222 cells [11] (SW1222, 5 mM Cu(II), regardless of metformin concentration). In addition, the “Normalized ATP percentage” value in the series on K562 cells [5] (K562, 400 µM Cu(II), no metformin) worked out at 47.2%.

The values above are taken from PMC8401132 (Molecules, 2021).
